Data published in US10385085B2, “Crystal forms of sialic acid or salt or solvate thereof” (Ultragenyx Pharmaceutical Inc., priority 2015, dated 2019).
“And” between values parts separate entries of the source, which are not always exact repeats. Equal values may be shown once. Blank lines part the entries; values can stand above or below the compound they belong to.

Legend:
Assay type in all cases: physicochemical
[1] = Approximate solvent solubility screen (aliquot addition); conditions: for solubility: 40 °C, thermodynamic from solid
Procedure: Approximately 10 mg of sialic acid was used to check the solubility in 31 different solvents or solvent mixtures.
50 μl aliquots of solvent were added in attempts to dissolve the sialic acid. The volume range used varied between 50 μl and 2 ml. Dissolution was aided by heating to 40° C. and shaking the vial between aliquots.
The mixture of solvents Ethanol:Acetone:Ethyl acetate (85:12:3 wt %) will be referred to as “Ethynol” hereafter.

[2] = Approximate aqueous solubility of the solid forms (solvent addition method)
Procedure: (§1) The selected Forms (5, 3 and 2) were fully characterized by PLM, XRPD, ^1H NMR and IR spectroscopy, DSC, TG/DTA, GVS (with post-GVS XRPD), Karl Fischer titration for water content and HPLC analysis for purity. All of these forms with the addition of Form 1 were also placed under a stress-stability test, at three different conditions for one week (ambient conditions, 40° C. and 75% relative humidity, 80° C.). In addition to this, an approximate solubility test was conducted on the different solid forms using a solvent addition method.
Approximately 50 mg of each form (1, 2, 3 and 5) was weighed into a 2 ml vial. 20 μl aliquots of deionized water was added to each vial until complete dissolution of the solid was observed. The volume was noted down and the approximate water solubility calculated.

[3] = Differential Scanning Calorimetry (DSC)
Procedure: Approximately, 5 mg of material was weighed into an aluminium DSC pan and sealed non-hermetically with a pierced aluminium lid. The sample pan was then loaded into a Seiko DSC6200 (equipped with a cooler) cooled and held at 25° C. Once a stable heat-flow response was obtained, the sample and reference were heated to 210° C. at a scan rate of 10° C./min and the resulting heat flow response monitored. Nitrogen was used as the purge gas, at a flow rate of 50 cm^3/min.

[4] = PLM (morphology) of the solid forms
[5] = Gravimetric Vapour Sorption (GVS) with post-GVS XRPD; conditions: for Polymorphic form after GVS (XRPD): material reclaimed after GVS run
Procedure: Approximately 10-20 mg of sample was placed into a mesh vapour sorption balance pan and loaded into an IGASorp Moisture Sorption Analyser balance by Hiden Analytical. The sample was subjected to a ramping profile from 40-90% relative humidity (RH) at 10% increments, maintaining the sample at each step until a stable weight had been achieved (98% step completion). After completion of the sorption cycle, the sample was dried using the same procedure to 0% RH, and finally taken back to the starting point of 40% RH. The weight change during the sorption/desorption cycles were plotted, allowing for the hygroscopic nature of the sample to be determined.

HPLC-UV chemical purity = conditions: summary Table 13
Procedure: The chemical purity was measured on an Agilent HP1100 HPLC system fitted with an Agilent variable wavelength UV detector. Samples were prepared by dissolving in diluent at a concentration of 1 mg/mL before being analysed under the following HPLC conditions: […]

[6] = 7 day stress stability, chemical stability by HPLC; conditions: for Chemical stability: 1 week stress test, conditions studied; for Sialic acid Area % (HPLC): two injections
Procedure: The chemical purity was measured on an Agilent HP1100 HPLC system fitted with an Agilent variable wavelength UV detector. Samples were prepared by dissolving in diluent at a concentration of 1 mg/mL before being analysed under the following HPLC conditions:
as §1
(§2) All four Forms (1, 2, 3 and 5) were placed under 7 day stress stability testing. This was carried out by placing the four forms under three different conditions for one week. Their physical stability was then analyzed by comparing the diffractograms and the chemical stability was checked by HPLC.

[7] = Thermogravimetric/Differential Thermal Analysis (TG/DTA)
Procedure: Approximately, 10 mg of material was weighed into an open aluminium pan and loaded into a simultaneous thermogravimetric/differential thermal analyser (TG/DTA) and held at room temperature. The sample was then heated at a rate of 10° C./min from 25° C. to 300° C. during which time the change in sample weight was recorded along with any differential thermal events (DTA). Nitrogen was used as the purge gas, at a flow rate of 300 cm^3/min.

[8] = 7 day stress stability, physical form by XRPD
Procedure: XRPD analysis was carried out on a Panalytical X′pert Pro, scanning the samples between 3 and 35° […]. The material was gently ground and loaded onto a multi well plate with Kapton or mylar polymer film to support the sample. The multi well plate was then loaded into a Panalytical diffractometer running in transmission mode and analysed, using the following experimental conditions.
as §1, §2

[9] = stability under ambient conditions
[10] = 1 week under ambient conditions

solubility ([1]; aqueous with cosolvent or surfactant or cyclodextrin, solvent: Water:Acetic Acid (80:20) v/v): > 213000 µg/mL | solubility ([1]; organic solvent or mixture, solvent: 1,4-Dioxane): < 4900 µg/mL | solubility ([1]; organic solvent or mixture, solvent: 1-Butanol): < 6100 µg/mL | solubility ([1]; organic solvent or mixture, solvent: 2-Ethoxy ethanol): < 6800 µg/mL | solubility ([1]; organic solvent or mixture, solvent: 2-Methyl THF): < 5200 µg/mL | solubility ([1]; organic solvent or mixture, solvent: 2-propanol): < 5000 µg/mL | solubility ([1]; organic solvent or mixture, solvent: Acetic acid): < 5400 µg/mL | solubility ([1]; organic solvent or mixture, solvent: Acetone): < 5600 µg/mL | solubility ([1]; organic solvent or mixture, solvent: Acetone:Ethanol (50:50) v/v): < 5100 µg/mL | solubility ([1]; organic solvent or mixture, solvent: Acetone:Ethyl Acetate (50:50) v/v): < 4800 µg/mL | solubility ([1]; organic solvent or mixture, solvent: Acetone:Water (90:10) v/v): < 5100 µg/mL | solubility ([1]; organic solvent or mixture, solvent: Acetonitrile): < 4800 µg/mL | solubility ([1]; organic solvent or mixture, solvent: Dichloromethane): < 5100 µg/mL | solubility ([1]; organic solvent or mixture, solvent: Diisopropyl ether): < 4800 µg/mL | solubility ([1]; organic solvent or mixture, solvent: Dimethylacetamide): > 72600 µg/mL | solubility ([1]; organic solvent or mixture, solvent: Dimethylsulfoxide): > 301000 µg/mL | solubility ([1]; organic solvent or mixture, solvent: Ethanol): < 5100 µg/mL | solubility ([1]; organic solvent or mixture, solvent: Ethanol:Water (90:10) v/v): < 5200 µg/mL | solubility ([1]; organic solvent or mixture, solvent: Ethyl acetate): < 5800 µg/mL | solubility ([1]; organic solvent or mixture, solvent: Ethynol (Ethanol:Acetone:Ethyl acetate 85:12:3 wt %)): < 5300 µg/mL | solubility ([1]; organic solvent or mixture, solvent: Isopropyl acetate): < 6500 µg/mL | solubility ([1]; organic solvent or mixture, solvent: Methanol): < 5200 µg/mL | solubility ([1]; organic solvent or mixture, solvent: Methylethyl ketone): < 5700 µg/mL | solubility ([1]; organic solvent or mixture, solvent: Methylisobutyl ketone): < 6300 µg/mL | solubility ([1]; organic solvent or mixture, solvent: N-Methyl-2-pyrrolidone): > 72100 µg/mL | solubility ([1]; organic solvent or mixture, solvent: Nitromethane): < 6000 µg/mL | solubility ([1]; organic solvent or mixture, solvent: Tetrahydrofuran): < 5300 µg/mL | solubility ([1]; organic solvent or mixture, solvent: Toluene): < 5900 µg/mL | solubility ([1]; organic solvent or mixture, solvent: n-Heptane): < 5300 µg/mL | solubility ([1]; organic solvent or mixture, solvent: tert-Butylmethyl ether): < 4600 µg/mL | solubility ([1]; solvent: Water): > 212000 µg/mL | Visual Observation ([1]; solvent: 1,4-Dioxane): Partial Solubility | Visual Observation ([1]; solvent: 1-Butanol): Partial Solubility | Visual Observation ([1]; solvent: 2-Ethoxy ethanol): Partial Solubility | Visual Observation ([1]; solvent: 2-Methyl THF): Partial Solubility | Visual Observation ([1]; solvent: 2-propanol): Partial Solubility | Visual Observation ([1]; solvent: Acetic acid): Partial Solubility | Visual Observation ([1]; solvent: Acetone): Low Solubility | Visual Observation ([1]; solvent: Acetone:Ethanol (50:50) v/v): Partial Solubility | Visual Observation ([1]; solvent: Acetone:Ethyl Acetate (50:50) v/v): Low Solubility | Visual Observation ([1]; solvent: Acetone:Water (90:10) v/v): Partial Solubility | Visual Observation ([1]; solvent: Acetonitrile): Low Solubility | Visual Observation ([1]; solvent: Dichloromethane): Partial Solubility | Visual Observation ([1]; solvent: Diisopropyl ether): Low Solubility | Visual Observation ([1]; solvent: Dimethylacetamide): Soluble | Visual Observation ([1]; solvent: Dimethylsulfoxide): Soluble | Visual Observation ([1]; solvent: Ethanol): Partial Solubility | Visual Observation ([1]; solvent: Ethanol:Water (90:10) v/v): Partial Solubility | Visual Observation ([1]; solvent: Ethyl acetate): Extremely low | Visual Observation ([1]; solvent: Ethynol (Ethanol:Acetone:Ethyl acetate 85:12:3 wt %)): Partial Solubility | Visual Observation ([1]; solvent: Isopropyl acetate): Extremely low | Visual Observation ([1]; solvent: Methanol): Partial Solubility | Visual Observation ([1]; solvent: Methylethyl ketone): Partial Solubility | Visual Observation ([1]; solvent: Methylisobutyl ketone): Low Solubility | Visual Observation ([1]; solvent: N-Methyl-2-pyrrolidone): Soluble | Visual Observation ([1]; solvent: Nitromethane): Low Solubility | Visual Observation ([1]; solvent: Tetrahydrofuran): Low Solubility | Visual Observation ([1]; solvent: Toluene): Partial Solubility | Visual Observation ([1]; solvent: Water): Soluble | Visual Observation ([1]; solvent: Water:Acetic Acid (80:20) v/v): Soluble | Visual Observation ([1]; solvent: n-Heptane): Extremely low | Visual Observation ([1]; solvent: tert-Butylmethyl ether): Extremely low
SMILES: CC(=O)N[C@H]1[C@H]([C@H](O)[C@H](O)CO)OC(O)(C(=O)O)C[C@@H]1O (stereo partly shown) [Sialic acid, N-acetylneuraminic acid]

Approximate solubility ([2]; aqueous): 105000 µg/mL | Aqueous Solubility, Solubility in g/L ([2]; deionized water, approximate, solvent addition): 105 g/L | DSC (thermal events) Endotherm [3]: 181.0° ° C. | PLM (morphology), particle size [4]: <30 μm | PLM (morphology) ([4]; particle shape): Small needles | DVS (hygroscopicity) [5]: Goes to form 1 | Hygroscopicity (GVS) [5]: slightly hygroscopic | XRPD post DVS [5]: change | Polymorphic form after GVS (XRPD) [5]: converted to Form 1 | DVS, RH at which the form goes to form 1 ([5]; relative humidity): RH >50% | HPLC (purity) (HPLC-UV chemical purity): 99.70% and 99.80% | Chemical stability [6]: good chemical stability | Sialic acid Area % (HPLC) ([6]; after 1 week under 40° C., 75% RH): 99.405% and 99.360% | Acetic acid Area % (HPLC) ([6]; after 1 week under 80° C.): 0.075% and 0.072% | Sodium Pyruvate Area % (HPLC) ([6]; after 1 week under 80° C.): 0.076% and 0.077% | Sialic acid Area % (HPLC) ([6]; after 1 week under 80° C.): 99.348% and 99.372% | Sialic acid Area % (HPLC) ([6]; after 1 week under ambient conditions): 99.561% and 99.605% | HPLC purity of recovered samples ([6]; after 1 week, all three conditions (ambient; 40° C./75% RH; 80° C.)): higher than 99.4% | Area % Acetic acid (HPLC) ([6]; stability under 40° C., 75% RH): 0.000% | Area % N-acetyl-D-glucosamine (HPLC) ([6]; stability under 40° C., 75% RH): 0.000% | Area % N-acetyl-D-mannosamine (HPLC) ([6]; stability under 40° C., 75% RH): 0.000% | Area % Sodium Pyruvate (HPLC) ([6]; stability under 40° C., 75% RH): 0.000% | Area % Acetic acid (HPLC) ([6]; stability under 80° C.): 0.000% | Area % N-acetyl-D-glucosamine (HPLC) ([6]; stability under 80° C.): 0.000% | Area % N-acetyl-D-mannosamine (HPLC) ([6]; stability under 80° C.): 0.000% | Area % Sialic acid (HPLC) ([6]; stability under 80° C.): 99.601% and 99.566% | Area % Sodium Pyruvate (HPLC) ([6]; stability under 80° C.): 0.000% and 0.044% | Area % Acetic acid (HPLC) [6, 9]: 0.000% | Area % N-acetyl-D-glucosamine (HPLC) [6, 9]: 0.000% | Area % N-acetyl-D-mannosamine (HPLC) [6, 9]: 0.000% | Area % Sodium Pyruvate (HPLC) [6, 9]: 0.000% | TGA Decomposition temperature [7]: at 178.5 °C | Physical form (XRPD) after stress ([8]; 1 week at 40° C./75% RH): converts to Form 1 | Physical form (XRPD) after stress ([8]; 1 week at 80° C.): stable | Physical form (XRPD) after stress [8, 10]: stable | Stability - XRPD post Stability ([8]; at 80° C.): Form 2 at 80 °C | Stability - XRPD post Stability ([8]; at RT): Form 1 + 2 at RT
SMILES: CC(=O)N[C@H]1[C@H]([C@H](O)[C@H](O)CO)OC(O)(C(=O)O)C[C@@H]1O (stereo partly shown) [Form 2, N-acetylneuraminic acid]

Hygroscopicity (GVS) [5]: slightly hygroscopic | GVS weight loss on sorption ([5]; RH>50%): ca. 1.5% | Polymorphic form after GVS (XRPD) [5]: transformed to Form 1 | Chemical stability [6]: good | Physical form (XRPD) after stress ([8]; 1 week at 40° C./75% RH): converts to Form 1 | Physical form (XRPD) after stress ([8]; 1 week at 80° C.): stable | Physical form (XRPD) after stress [8, 10]: mixture of Forms 1 and 2
SMILES: CC(=O)N[C@H]1[C@H]([C@H](O)[C@H](O)CO)OC(O)(C(=O)O)C[C@@H]1O (stereo partly shown) [An embodiment of Form 2, N-acetylneuraminic acid]
